The values below come from patent publication US8846928B2 (Portola Pharmaceuticals, Inc., priority 2010, dated 2014).

The test concerns the target T1, full length active recombinant SYK enzyme (Homo sapiens, UniProt P43405).
T1 construct: full length active recombinant SYK enzyme (Millipore, Calif.); purchased Millipore
Nature of the test: Inhibition of Syk tyrosine phosphorylation activity (LANCE TR-FRET kinase assay). Format: biochemical. On the technique in general: In TR-FRET formats the signal depends on donor and acceptor labels being close together.
The term IC50 denotes the concentration that inhibits the measured activity by half. With `Cn1ccc2c(Nc3nc(N[C@@H]4CCCC(F)(F)[C@@H]4N)c(F)cc3C(N)=O)cccc21` [Example 330, 6-((1R,2R)-2-amino-3,3-difluorocyclohexylamino)-5-fluoro-2-(1-methyl-1H-indol-4-ylamino)nicotinamide], the IC50 lay in the range of 10 to 100 nM. The same measure for `Cn1ccc2cc(Nc3nc(N[C@@H]4CCCC(F)(F)[C@@H]4N)c(F)cc3C(N)=O)ccc21` [Example 331, 6-((1R,2R)-2-amino-3,3-difluorocyclohexylamino)-5-fluoro-2-(1-methyl-1H-indol-5-ylamino)nicotinamide]: 10 to 100 nM.

For `Cc1cncc(Nc2nc(N[C@@H]3CCCC(F)(F)[C@@H]3N)c(F)cc2C(N)=O)c1` [Example 332, 6-((1R,2R)-2-amino-3,3-difluorocyclohexylamino)-5-fluoro-2-(5-methylpyridin-3-ylamino)nicotinamide], the IC50 lay within 100 to 1000 nM. The result for `Cc1cc(Nc2nc(N[C@@H]3CCCC(F)(F)[C@@H]3N)c(F)cc2C(N)=O)sn1` [Example 333, 6-((1R,2R)-2-amino-3,3-difluorocyclohexylamino)-5-fluoro-2-(3-methylisothiazol-5-ylamino)nicotinamide] reads 100 to 1000 nM. Turning to `Cc1ccc(Nc2nc(N[C@@H]3CCCC(F)(F)[C@@H]3N)c(F)cc2C(N)=O)cc1` [Example 334, 6-((1R,2R)-2-amino-3,3-difluorocyclohexylamino)-5-fluoro-2-(p-tolylamino)nicotinamide], the half-maximal inhibitory concentration (IC50) fell in the range of 100 to 1000 nM. As for `Cc1cccc(Nc2nc(N[C@@H]3CCCC(F)(F)[C@@H]3N)c(F)cc2C(N)=O)c1` [Example 335, 6-((1R,2R)-2-amino-3,3-difluorocyclohexylamino)-5-fluoro-2-(m-tolylamino)nicotinamide], the IC50 was 10 to 100 nM. The same measure for `NC(=O)c1cc(F)c(N[C@@H]2CCCC(F)(F)[C@@H]2N)nc1Nc1cccc(Cl)c1` [Example 336, 6-((1R,2R)-2-amino-3,3-difluorocyclohexylamino)-2-(3-chlorophenylamino)-5-fluoronicotinamide]: 100 to 1000 nM. The same measure for `NC(=O)c1cc(F)c(N[C@@H]2CCCC(F)(F)[C@@H]2N)nc1Nc1cc(F)cc(F)c1` [Example 337, 6-((1R,2R)-2-amino-3,3-difluorocyclohexylamino)-2-(3,5-difluorophenylamino)-5-fluoronicotinamide]: 100 to 1000 nM; for `COc1cc(F)cc(Nc2nc(N[C@@H]3CCCC(F)(F)[C@@H]3N)c(F)cc2C(N)=O)c1` [Example 338, 6-((1R,2R)-2-amino-3,3-difluorocyclohexylamino)-5-fluoro-2-(3-fluoro-5-methoxyphenylamino)nicotinamide]: 100 to 1000 nM; for `Cc1cc(F)cc(Nc2nc(N[C@@H]3CCCC(F)(F)[C@@H]3N)c(F)cc2C(N)=O)c1` [Example 339, 6-((1R,2R)-2-amino-3,3-difluorocyclohexylamino)-5-fluoro-2-(3-fluoro-5-methylphenylamino)nicotinamide]: 10 to 100 nM.

For `NC(=O)c1cc(F)c(N[C@H]2[C@@H](N)CCCC2(F)F)nc1Nc1cccc(-n2nccn2)c1` [Example 340], the IC50 fell in the range of 1 to 10 nM.

Turning to `NC(=O)c1cc(F)c(N[C@H]2[C@@H](N)CCCC2(F)F)nc1Nc1cccc(-n2cccn2)c1` [Example 341, 2-(3-(1H-pyrazol-1-yl)phenylamino)-6-((1S,6S)-6-amino-2,2-difluorocyclohexylamino)-5-fluoronicotinamide], the IC50 fell in the range of 1 to 10 nM. The same measure for `NC(=O)c1cc(F)c(N[C@H]2[C@@H](N)CCCC2(F)F)nc1Nc1cccc(-c2ncccn2)c1` [Example 342, 6-((1S,6S)-6-amino-2,2-difluorocyclohexylamino)-5-fluoro-2-(3-(pyrimidin-2-yl)phenylamino)nicotinamide]: 10 to 100 nM. On to `NC(=O)c1cc(F)c(N[C@H]2[C@@H](N)CCCC2(F)F)nc1Nc1ccc2ncccc2c1` [Example 343, 6-((1S,6S)-6-amino-2,2-difluorocyclohexylamino)-5-fluoro-2-(quinolin-6-ylamino)nicotinamide], for which the concentration for half-maximal inhibition (IC50) fell in the range of 1 to 10 nM.

As to `NC(=O)c1cc(F)c(N[C@H]2[C@@H](N)CCCC2(F)F)nc1Nc1cnc2ccccc2c1` [Example 344, 6-((1S,6S)-6-amino-2,2-difluorocyclohexylamino)-5-fluoro-2-(quinolin-3-ylamino)nicotinamide], the IC50 was 1 to 10 nM. The same measure for `NC(=O)c1cc(F)c(N[C@H]2[C@@H](N)CCCC2(F)F)nc1Nc1ccc2ncsc2c1` [Example 345, 6-((1S,6S)-6-amino-2,2-difluorocyclohexylamino)-2-(benzo[d]thiazol-6-ylamino)-5-fluoronicotinamide]: 1 to 10 nM; for `Cc1ccc(Nc2nc(N[C@H]3[C@@H](N)CCCC3(F)F)c(F)cc2C(N)=O)cc1` [Example 346]: 10 to 100 nM. The result for `NC(=O)c1cc(F)c(N[C@H]2[C@@H](N)CCCC2(F)F)nc1Nc1cccnc1` [Example 347, 6-((1S,6S)-6-amino-2,2-difluorocyclohexylamino)-5-fluoro-2-(pyridin-3-ylamino)nicotinamide] reads 10 to 100 nM; that for `NC(=O)c1cc(F)c(N[C@H]2[C@@H](N)CCCC2(F)F)nc1Nc1cncc(F)c1` [Example 348], 10 to 100 nM; that for `Cc1ccc(Nc2nc(N[C@@H]3CCOC[C@@H]3N)c(F)cc2C(N)=O)cc1` [Example 349, 6-((3R,4R)-3-aminotetrahydro-2H-pyran-4-ylamino)-5-fluoro-2-(p-tolylamino)nicotinamide], 10 to 100 nM. As for `NC(=O)c1cc(F)c(N[C@@H]2CCNC2)nc1Nc1ccc2ncccc2c1` [Example 351, (R)-5-fluoro-6-(pyrrolidin-3-ylamino)-2-(quinolin-6-ylamino)nicotinamide], the IC50 is 10 to 100 nM. The result for `CC[C@H](Nc1nc(Nc2cccc(C)c2)c(C(N)=O)cc1F)C1(N)CC1` [Example 369, (S)-6-(1-(1-aminocyclopropyl)propylamino)-5-fluoro-2-(m-tolylamino)nicotinamide] reads 100 to 1000 nM; that for `CC[C@H](Nc1nc(Nc2ccc(C)cc2)c(C(N)=O)cc1F)C1(N)CC1` [Example 370, (S)-6-(1-(1-aminocyclopropyl)propylamino)-5-fluoro-2-(p-tolylamino)nicotinamide], > 1000 nM. The result for `CC[C@H](Nc1nc(Nc2cccnc2)c(C(N)=O)cc1F)C1(N)CC1` [Example 371, (S)-6-(1-(1-aminocyclopropyl)propylamino)-5-fluoro-2-(pyridin-3-ylamino)nicotinamide] reads > 1000 nM; that for `CC[C@@H](Nc1nc(Nc2cncc(F)c2)c(C(N)=O)cc1F)C1(N)CC1` [Example 373, (R)-6-(1-(1-aminocyclopropyl)propylamino)-5-fluoro-2-(5-fluoropyridin-3-ylamino)nicotinamide], 10 to 100 nM; that for `NC(=O)c1cc(F)c(NC2(C(N)=O)CCCC2)nc1Nc1cnc2ccccc2c1` [Example 376, 6-(1-carbamoylcyclopentylamino)-5-fluoro-2-(quinolin-3-ylamino)nicotinamide], 100 to 1000 nM.

Regarding `NC(=O)c1cc(F)c(NC(CC(F)(F)F)C(N)=O)nc1Nc1cnc2ccccc2c1` (stereo not shown) [Example 377, 6-(1-amino-4,4,4-trifluoro-1-oxobutan-2-ylamino)-5-fluoro-2-(quinolin-3-ylamino)nicotinamide], the IC50 is 10 to 100 nM. The same measure for `NC(=O)c1cc(F)c(NC2(C(N)=O)CCCCC2)nc1Nc1cnc2ccccc2c1` [Example 378, 6-(1-carbamoylcyclohexylamino)-5-fluoro-2-(quinolin-3-ylamino)nicotinamide]: > 1000 nM; for `NC(=O)c1cc(F)c(NC2(C(N)=O)CCC2)nc1Nc1cnc2ccccc2c1` [Example 379, 6-(1-carbamoylcyclobutylamino)-5-fluoro-2-(quinolin-3-ylamino)nicotinamide]: 100 to 1000 nM.

In the case of `Cc1cccc(Nc2nc(NC[C@@H](N)CC(F)F)c(F)cc2C(N)=O)c1` [Example 380, (S)-2-(m-toluidino)-6-(2-amino-4,4-difluorobutylamino)-5-fluoronicotinamide], the IC50 lay in the range of 10 to 100 nM. As to `Cc1ccc(Nc2nc(NC[C@@H](N)CC(F)F)c(F)cc2C(N)=O)cc1` [Example 381, (S)-2-(p-toluidino)-6-(2-amino-4,4-difluorobutylamino)-5-fluoronicotinamide], the IC50 lay within 100 to 1000 nM. The same measure for `NC(=O)c1cc(F)c(NC[C@@H](N)CC(F)F)nc1Nc1cncc(F)c1` [Example 382, (S)-6-(2-amino-4,4-difluorobutylamino)-5-fluoro-2-(5-fluoropyridin-3-ylamino)nicotinamide]: 100 to 1000 nM; for `NC(=O)c1ccc(N[C@@H]2CCNC2)nc1Nc1ccc2ncccc2c1` [Example 383, (R)-6-(pyrrolidin-3-ylamino)-2-(quinolin-6-ylamino)nicotinamide]: > 1000 nM. The result for `NC(=O)c1cc(F)c(N[C@@H]2CCOC[C@@H]2N)nc1Nc1ccc2ncsc2c1` [Example 384, 6-((3R,4R)-3-aminotetrahydro-2H-pyran-4-ylamino)-2-(benzo[d]thiazol-6-ylamino)-5-fluoronicotinamide] reads 1 to 10 nM; that for `Cc1cccc(Nc2nc(N[C@@H]3CCOC[C@@H]3N)c(F)cc2C(N)=O)c1` [Example 385, 6-((3R,4R)-3-aminotetrahydro-2H-pyran-4-ylamino)-5-fluoro-2-(m-tolylamino)nicotinamide], 1 to 10 nM; that for `NC(=O)c1cc(F)c(N[C@@H]2CCOC[C@@H]2N)nc1Nc1cccc(Cl)c1` [Example 386, 6-((3R,4R)-3-aminotetrahydro-2H-pyran-4-ylamino)-2-(3-chlorophenylamino)-5-fluoronicotinamide], 1 to 10 nM.

In the case of `Cn1ncc2c(Nc3nc(N[C@@H]4CCCC(F)(F)[C@@H]4N)c(F)cc3C(N)=O)cccc21` [Example 387, 6-((1R,2R)-2-amino-3,3-difluorocyclohexylamino)-5-fluoro-2-(1-methyl-1H-indazol-4-ylamino)nicotinamide], the IC50 was in the range of 100 to 1000 nM.
